# Measured values as given in patent US9278914B2, “SARMs and method of use thereof” (UNIVERSITY OF TENNESSEE RESEARCH FOUNDATION, priority 2004, dated 2016).
# Columns and labels:
# [1] = Metabolic stability measured in human liver microsomes; assay type: in vitro ADME
# Description: Microsome reactions were performed under either Phase I or “Phase I and II” conditions, where indicated. Compound stocks (10 mM ACN) were initially initially diluted to a concentration of 60 μM (in 60% ACN/H2O) resulting in a “working stock” stock” solution of 100×. Human liver microsomes were utilized at a final concentration of 0.6 mg/ml. Duplicate wells were used for each time point (0, 6, 10, 30, and 60 minutes). Reactions were carried out at 37° C. in a shaking water bath, and the final concentration of solvent was kept constant at 0.6%. The final volume for each reaction was 600 μl, comprised of […] of 100 mM KPO4 buffer, (pH 7.4); 12.6 μl of HLM (from a 20 mg/ml stock); 6 μl of 100×“working stock” drug compound, and 126 μl of NRS “master mix” solution. At each time point, 100 μl of reaction was removed and added to a sample well containing 100 μl of ice-cold, 100% ACN (plus internal standards), to stop the reaction. The NRS “master mix” is a solution of glucose-6-phosphate dehydrogenase, NADP^+, MgCl2, and glucose-6-phosphate, prepared per manufacturer's instructions (BD Biosciences, Waltham, Mass.). Each 6.0 ml stock of NRS “master mix” solution contains 3.8 […], 1.0 ml solution “A” (Cat. #461220), and 0.2 ml solution “B” (Cat. #461200). Human liver microsomes (lot #0610279, Xenotech Corp.) represented a pool of 60 donors. donors.
# Samples were centrifuged at 3,000 rpm for 10 minutes at 4° C. to remove debris and precipitate protein. Approximately 160 μl of supernatant was subsequently transferred to a new sample block for analysis. The concentration of parent drug remaining in each well (expressed as percent remaining versus Time ‘0’, at the beginning of the reaction) was measured by LC/MS, as detailed below.
# All samples were analyzed on the MDS/Sciex API4000 Q Trap system with electrospray ionization (ESI) in the positive or negative SIM mode, depending on the compounds. The mobile phases were isocratic at 30% A (0.1% formic acid in water) and 70% B (0.1% formic acid in acetonitrile) with a flow rate of 0.4 mL/min. A Phenomenex Luna Phenyl-Hexyl column (60×2.0 mm ID, 6μ) was used. The injection volume was 10 μL. The total run time per sample was 1.6 to 3.0 minutes. […] The percentage of parent drug compound remaining after each time point was determined relative to the initial measured concentration at the beginning of the reaction (T0 min).
# For half-life determination, data was fitted using GraphPad Prism, v 4.03 with the non-linear regression equation “one phase exponential decay” defined as: Y=Span*exp(−K*X)+Plateau (decays to Plateau with a first-order rate constant, K). […] Intrinsic Clearance (μl/min/mg protein) is defined as: CLint=0.693*(1/T1/2)*(ml incubation/mg protein)*1000; This equation can also be expressed as (K*1000)/microsome concentration.
# [2] = test system: castrated (ORX) male Sprague-Dawley rats; test: Anabolic and androgenic activity in castrated (ORX) male rats, daily oral gavage for fourteen days; assay type: in vivo, rat; conditions: ORX rats
# Description: Male Sprague-Dawley rats weighing approximately 200 g were purchased from Harlan Bioproducts for Science (Indianapolis, Ind.).
# The test article for this study was weighed and dissolved in 10% DMSO (Fisher) diluted with PEG 300 (Acros Organics, N.J.) for preparation of the appropriate dosage concentrations. […] Animals were randomly assigned to one of seven groups consisting of 4 to 5 animals per group. Control groups (intact and ORX) were administered vehicle daily. […] Where appropriate, animals were castrated on day one of the study.
# In addition, ventral prostate, seminal vesicles, and levator ani muscle were removed, individually weighed, normalized to body weight, and expressed as a percentage of intact control. Student's T-test was used to compare individual dose groups to the intact control group. Significance was defined a priori as a P-value<0.05. Ventral prostate and seminal vesicle weights were evaluated as a measure of androgenic activity, whereas levator ani muscle weight was evaluated as a measure of anabolic activity. Blood was collected from the abdominal aorta, centrifuged, and sera were frozen at −80° C. prior to determination of serum hormone levels. Serum luteinizing hormone (LH) and follicle stimulating hormone (FSH) concentrations were determined.
# (§1) The test article for this study was weighed and dissolved in 10% DMSO (Fisher) diluted with PEG 300 (Acros Organics, N.J.) for preparation of the appropriate dosage concentrations. […] Animals were randomly assigned to one of seven groups consisting of 4 to 5 animals per group. Control groups (intact and ORX) were administered vehicle daily. Compound of formula S-XXIII was administered via oral gavage at doses of 0.01, 0.03, 0.1, 0.3, 0.75, and 1 mg/day to both intact and ORX groups. Where appropriate, animals were castrated on day one of the study. Treatment with compound of formula S-XXIII began nine days post ORX and was administered daily via oral gavage for fourteen days.
# Male Sprague-Dawley rats weighing approximately 200 g were purchased from Harlan Bioproducts for Science (Indianapolis, Ind.). […] Regenerative effects of the compound of formula S-XXIV in chronically (9 days) ORX rats was similarly evaluated.
# as §1, with “S-XXIV” for “S-XXIII”
# Male Sprague-Dawley rats weighing approximately 200 g were purchased from Harlan Bioproducts for Science (Indianapolis, Ind.). […] Anabolic and androgenic activity of compound of formula S-XXV in intact animals was evaluated, and the dose response in acutely orchidectomized (ORX) animals was evaluated as well.
# The compound was weighed and dissolved in 10% DMSO (Fisher) diluted with PEG 300 (Acros Organics, N.J.) for preparation of the appropriate dosage concentrations.
smiles,measurement,setting,value
"C[C@](O)(COc1ccc(Cl)c(F)c1)C(=O)Nc1ccc(C#N)c(C(F)(F)F)c1 [S-II, (S)-3-(4-chloro-3-fluorophenoxy)-N-(4-cyano-3-(trifluoromethyl)phenyl)-2-hydroxy-2-methylpropanamide]",CLint (ul/min/mg) Phase I + II,[1]; Phase I + II,<1 µL/min/mg
same,Half Life (minutes) Phase I + II,"[1]; Phase I + II, 0.6 μM",Stable
same,Half Life (minutes) Phase I only,"[1]; Phase I only, 0.6 μM",Stable
same,microsomal CLint at 0.6 μM,"[1]; human, human liver microsomes, pH 7.4, Phase I only, read-out: CLint (ul/min/mg) Phase I only",< 1 µL/min/mg
same,Levator ani muscle weight,[2]; 0.01 mg/day oral,50%±5%
same,Prostate weight,[2]; 0.01 mg/day oral,12%±3%
same,Seminal vesicle weight,[2]; 0.01 mg/day oral,11%±1%
same,Levator ani muscle weight,[2]; 0.03 mg/day oral,62%±6%
same,Prostate weight,[2]; 0.03 mg/day oral,26%±7%
same,Seminal vesicle weight,[2]; 0.03 mg/day oral,11%±1%
same,Levator ani muscle weight,[2]; 0.1 mg/day oral,89%±10%
same,Prostate weight,[2]; 0.1 mg/day oral,39%±6%
same,Seminal vesicle weight,[2]; 0.1 mg/day oral,27%±14%
same,Levator ani muscle weight,[2]; 0.3 mg/day oral,118%±6%
same,Prostate weight,[2]; 0.3 mg/day oral,60%±14%
same,Seminal vesicle weight,[2]; 0.3 mg/day oral,58%±18%
same,Levator ani muscle weight,[2]; 0.75 mg/day oral,134%±8%
same,Prostate weight,[2]; 0.75 mg/day oral,88%±16%
same,Seminal vesicle weight,[2]; 0.75 mg/day oral,86%±12%
same,Seminal vesicle weight,[2]; 1 mg/day oral,100%±8%
